By IC50 is commonly meant the point on the concentration scale where inhibition reaches its midpoint. What is called EC50 is the concentration that produces a half-maximal response.

Where two headings read alike, the source gives them in different places.

This is an account of results in US7999107B2, “Substituted pyrano[2,3-B]pyridine derivatives as cannabinoid-1 receptor modulators” (Merck Sharp & Dohme Corp., priority 2007, dated 2011).

In test [1] the target is T1, recombinant human CB1 receptor expressed in CHO cells (Homo sapiens, UniProt P21554). The test is described as follows: Cannabinoid Receptor-1 (CB1) Functional Antagonist Assay. Type of test: cell-based. The settings on record: cAMP. As to the method:
To determine the antagonist activity of test compound, the reaction mixture also contains 0.5 nM of the agonist CP55940 (or 50 nM of methanandamide), and the reversal of the CP55940 (or methanandamide) effect is quantitated with increasing concentration of the test compound. Intracellular cAMP is determined as described above. An IC50 value for the test compound is calculated from the titration curve.
Alternatively, a series of dose response curves for the agonist CP55940 (or methanandamide) is performed with increasing concentration of the test compound in each of the dose response curves, and a Schild analysis is carried to calculate the Kb value which is an estimation of test compound binding affinity.

In test [2] the target is T2, recombinant human CB1 receptor (Homo sapiens, UniProt P21554).
T2 construct: expressed in transfected cells; host or cells: CHO cells (membranes)
T2 sequence (P21554 whole entry): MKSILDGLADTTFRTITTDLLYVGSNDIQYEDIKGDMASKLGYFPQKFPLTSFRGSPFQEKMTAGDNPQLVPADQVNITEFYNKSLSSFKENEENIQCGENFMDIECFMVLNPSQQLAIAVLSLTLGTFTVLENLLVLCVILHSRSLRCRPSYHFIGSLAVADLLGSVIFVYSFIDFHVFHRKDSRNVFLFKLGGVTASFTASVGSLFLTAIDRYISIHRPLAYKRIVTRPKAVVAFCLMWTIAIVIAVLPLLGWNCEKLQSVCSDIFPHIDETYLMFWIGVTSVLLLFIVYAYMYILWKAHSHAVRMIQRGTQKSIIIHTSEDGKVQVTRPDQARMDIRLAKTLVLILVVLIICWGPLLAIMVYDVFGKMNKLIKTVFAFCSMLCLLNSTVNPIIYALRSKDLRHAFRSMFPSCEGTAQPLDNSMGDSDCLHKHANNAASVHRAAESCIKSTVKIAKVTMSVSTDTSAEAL
The test is described as follows: Cannabinoid Receptor-1 (CB1) Binding Assay. As for the experimental part: Binding affinity determination is based on recombinant human CB1 receptor expressed in Chinese Hamster Ovary (CHO) cells (Felder et al, Mol. Pharmacol. 48: 443-450, 1995). Total assay volume is 250 μl (240 μl CB1 receptor membrane solution plus 5 μl test compound solution plus 5 μl [3H]CP-55940 solution). Final concentration of [3H]CP-55940 is 0.6 nM. Binding buffer contains 50 mM Tris-HCl, pH7.4, 2.5 mM EDTA, 5 mM MgCl2, 0.5 mg/mL fatty acid free bovine serum albumin and protease inhibitors (Cat#P8340, from Sigma). To initiate the binding reaction, 5 μl of radioligand solution is added, the mixture is incubated with gentle shaking on a shaker for 1.5 h at 30° C. The binding is terminated by using 96-well harvester and filtering through GF/C filter presoaked in 0.05% polyethylenimine. The bound radiolabel is quantitated using scintillation counter. Apparent binding affinities for various compounds are calculated from IC50 values (DeBlasi et al., Trends Pharmacol Sci 10: 227-229, 1989).

Test [3] concerns the target T1, recombinant human CB1 receptor expressed in CHO cells. Put plainly: Cannabinoid Receptor-1 (CB1) Functional Activity Assay (cAMP). Format: cell-based. Particulars: forskolin-stimulated cAMP. As for the experimental part:
The functional activation of CB1 receptor is based on recombinant human CB1 receptor expressed in CHO cells (Felder et al, Mol. Pharmacol. 48: 443-450, 1995). To determine the agonist activity or inverse agonist activity of any test compound, 50 ul of CB1-CHO cell suspension are mixed with test compound and 70 ul assay buffer containing 0.34 mM 3-isobutyl-1-methylxanthine and 5.1 uM of forskolin in 96-well plates. The assay buffer is comprised of Earle's Balanced Salt Solution supplemented with 5 mM MgCl2, 1 mM glutamine, 10 mM HEPES, and 1 mg/mL bovine serum albumin. The mixture is incubated at room temperature for 30 minutes, and terminated by adding 30 ul/well of 0.5M HCl. The total intracellular cAMP level is quantitated using the New England Nuclear Flashplate and cAMP radioimmunoassay kit.

[4] abbreviates: [3H]CP-55940 0.6 nM, CHO cell membranes, read-out: CB1 binding IC50.

T1 sequence (P21554 whole entry): as above

Turning to `Cc1cc(NC2CC(C)(C)Oc3nc(-c4ccc(Cl)cc4Cl)c(-c4ccc(Cl)cc4)cc32)n[nH]1` (centres unmarked) [Example 246, 6-(4-Chlorophenyl)-7-(2,4-dichlorophenyl)-2,2-dimethyl-N-(5-methyl-1H-pyrazol-3-yl)-3,4-dihydro-2H-pyrano[2,3-b]pyridin-4-amine], the “functional character at CB1” value in test [1] was “functional inverse agonists”. For the same molecule, the 50% inhibitory concentration (IC50) in test [2] (setting [4]) amounted to 10 nM. Also, the half-maximal effective concentration (EC50) in test [3] is below 20 nM.

Turning to `CNC(=O)C(=O)NC1CC(C)(C)Oc2nc(-c3ccc(Cl)cc3Cl)c(-c3ccc(Cl)cc3)cc21` (centres unmarked) [Example 66, N-[6-(4-Chlorophenyl)-7-(2,4-dichlorophenyl)-2,2-dimethyl-3,4-dihydro-2H-pyrano[2,3-b]pyridin-4-yl]-N′-methylethanediamide], the “functional character at CB1” value in test [1] is on record as “functional inverse agonists”. Besides, the IC50 in test [2] (setting [4]) was found to be 2 nM. Also, the concentration for a half-maximal effect (EC50) in test [3] was below 20 nM.

As for `C[C@@H](O)C(=O)NC1CC(C)(C)Oc2nc(-c3ccc(Cl)cc3Cl)c(-c3ccc(Cl)cc3)cc21` (stereo partly drawn) [Example 96, (2R)-N-[6-(4-chlorophenyl)-7-(2,4-dichlorophenyl)-2,2-dimethyl-3,4-dihydro-2H-pyrano[2,3-b]pyridin-4-yl]-2-hydroxypropanamide], the “functional character at CB1” value in test [1] is given as “functional inverse agonists”.

Regarding `O=C1CC2(CCCCC2)Oc2nc(-c3ccccc3Cl)c(-c3ccc(Cl)cc3)cc21` [Example 4, 7′-(2-Chlorophenyl)-6′-(4-chlorophenyl)spiro[cyclohexane-1,2′-pyrano[2,3-b]pyridin]-4′(3′H)-one], in test [1], the “functional character at CB1” value is “functional inverse agonists”. The 50% inhibitory concentration (IC50) in test [2] worked out at 8 nM. Further, in test [3], the concentration for a half-maximal effect (EC50) was below 20 nM.

Regarding `CN(C)C(=O)NC1CC(C)(C)Oc2nc(-c3ccc(Cl)cc3Cl)c(-c3ccc(Cl)cc3)cc21` (centres unmarked) [Example 111, N′-[6-(4-chlorophenyl)-7-(2,4-dichlorophenyl)-2,2-dimethyl-3,4-dihydro-2H-pyrano[2,3-b]pyridin-4-yl]-N,N-dimethylurea], the “functional character at CB1” value in test [1] was “functional inverse agonists”. Further, the IC50 in test [2] (setting [4]) stood at 2 nM. Moreover, the concentration giving a half-maximal response (EC50) in test [3] was below 20 nM.

For the molecule `CC1(C)CC(Nc2ccccn2)c2cc(-c3ccc(Cl)cc3)c(-c3ccc(Cl)cc3Cl)nc2O1` (centres unmarked) [Example 245, 6-(4-Chlorophenyl)-7-(2,4-dichlorophenyl)-2,2-dimethyl-N-(pyridine-2-yl)-3,4-dihydro-2H-pyrano[2,3-b]pyridin-4-amine], the “functional character at CB1” value in test [1] is on record as “functional inverse agonists”. In addition, the IC50 in test [2] (setting [4]) was 2 nM. Also, the EC50 in test [3] is below 20 nM.

As for `Cc1cc(C(=O)N[C@@H]2CC(C)(C)Oc3nc(-c4ccc(Cl)cc4Cl)c(-c4ccc(Cl)cc4)cc32)n[nH]1` [Example 327, N-[(4R)-6-(4-Chlorophenyl)-7-(2,4-dichlorophenyl)-2,2-dimethyl-3,4-dihydro-2H-pyrano[2,3-b]pyridin-4-yl]-5-methyl-1H-pyrazole-3-carboxamide], the “functional character at CB1” value in test [1] was “functional inverse agonists”.

For the molecule `CC(C)(C)C1CC(=O)c2cc(-c3ccc(Cl)cc3)c(-c3ccccc3Cl)nc2O1` (centres unmarked) [Example 12, 2-tert-Butyl-7-(2-chlorophenyl)-6-(4-chlorophenyl)-2,3-dihydro-4H-pyrano[2,3-b]pyridin-4-one], the “functional character at CB1” value in test [1] is “functional inverse agonists”. Moreover, the concentration for half-maximal inhibition (IC50) in test [2] (setting [4]) amounted to 2 nM. Moreover, the EC50 in test [3] was below 20 nM.
